In PubChem BioAssay AID280 (DTP/NCI, 2004):
Values joined by “and” are separate entries in the source; they are usually repeats but may differ in a detail not shown here. Equal values may be shown once. Toxic doses and inconclusive results are not listed.

Test system: nude mice, LOX melanoma ip, survival T/C
Test: NCI In Vivo Anticancer Drug Screen. Data for tumor model Human Amelanotic Melanoma (LOX) (intraperitoneal) in NU/NU BALB/C (nude) mice
Details: endpoint: median survival time, higher = longer survival
Procedure: The antitumor activity of compounds was measured in mice bearing transplantable tumors. Survival or tumor size were measured and the results are expressed as the measurement made in the treated group (T) divided by the measurement made in the vehicle treated control group (C). The tumor model used in this assay is Human Amelanotic Melanoma (LOX) (intraperitoneal) in NU/NU BALB/C (nude) mice

[1] = dose: 50.0 mg/kg/injection, schedule: Q04DX003 (ip), vehicle: saline with Tween-80
[2] = dose: 100.0 mg/kg/injection, schedule: Q04DX003 (ip), vehicle: saline with Tween-80

For `CCS/C(SC)=C(/c1ccccc1)[P+](c1ccccc1)(c1ccccc1)c1ccccc1`, which T/C (dose: 0.81 mg/kg/injection, schedule: Q04DX003 (ip), vehicle: Klucel (hydroxypropylcellulose) (HPC)) is on record?
The T/C was 106 % of control.

What about the T/C (dose: 1.35 mg/kg/injection, schedule: Q04DX003 (ip), vehicle: Klucel (hydroxypropylcellulose) (HPC)) of the same molecule?
The T/C was 106 % of control.

And the T/C (dose: 2.25 mg/kg/injection, schedule: Q04DX003 (ip), vehicle: Klucel (hydroxypropylcellulose) (HPC))?
The T/C was 118 % of control.

And the T/C (dose: 3.12 mg/kg/injection, schedule: Q04DX003 (ip), vehicle: Klucel (hydroxypropylcellulose) (HPC))?
Its T/C is 95 % of control.

What about the T/C (dose: 3.76 mg/kg/injection, schedule: Q04DX003 (ip), vehicle: Klucel (hydroxypropylcellulose) (HPC)) of the same molecule?
Its T/C is 100 % of control.

And the T/C (dose: 6.25 mg/kg/injection, schedule: Q04DX003 (ip), vehicle: Klucel (hydroxypropylcellulose) (HPC))?
Its T/C is 94 % of control.

With `[N-]=[N+]=[N-]` as the molecule, how does the T/C (dose: 1.5 mg/kg/injection, schedule: Q04DX003 (ip), vehicle: water) read?
Its T/C is 99 % of control.

What about the T/C (dose: 3.0 mg/kg/injection, schedule: Q04DX003 (ip), vehicle: water) of the same molecule?
Its T/C is 104 % of control.

And the T/C (dose: 12.0 mg/kg/injection, schedule: Q04DX003 (ip), vehicle: water)?
Its T/C is 89 % of control.

What about the T/C (dose: 24.0 mg/kg/injection, schedule: Q04DX003 (ip), vehicle: water) of the same molecule?
Its T/C is 104 % of control.

For `C=COC(=O)C(Cc1ccccc1)NC(=O)OCc1ccccc1` (stereo unspecified), which T/C (dose: 7.5 mg/kg/injection, schedule: Q04DX003 (ip), vehicle: saline with Tween-80) is on record?
The T/C was 97 % of control.

What about the T/C (dose: 15.0 mg/kg/injection, schedule: Q04DX003 (ip), vehicle: saline with Tween-80) of the same molecule?
Its T/C is 101 % of control.

And the T/C (dose: 30.0 mg/kg/injection, schedule: Q04DX003 (ip), vehicle: saline with Tween-80)?
Its T/C is 105 % of control.

What about the T/C (dose: 60.0 mg/kg/injection, schedule: Q04DX003 (ip), vehicle: saline with Tween-80) of the same molecule?
Its T/C is 95 % of control.

And the T/C (dose: 75.0 mg/kg/injection, schedule: Q04DX003 (ip), vehicle: saline with Tween-80)?
The T/C was 89 % of control.

And the T/C (dose: 120.0 mg/kg/injection, schedule: Q04DX003 (ip), vehicle: saline with Tween-80)?
Its T/C is 104 % of control.

Which T/C (dose: 0.13 mg/kg/injection, schedule: Q04DX003 (ip), vehicle: saline) does the source give for `COc1cc2c(c(OC)c1OC)-c1ccc(OC)c(=O)cc1[C@@H](NC(C)=O)CC2` here?
The T/C was 162 % of control.

What about the T/C (dose: 0.25 mg/kg/injection, schedule: Q04DX003 (ip), vehicle: saline) of the same molecule?
Its T/C is 150 % of control and 179 % of control and 180 % of control.

And the T/C (dose: 0.5 mg/kg/injection, schedule: Q04DX003 (ip), vehicle: saline)?
Its T/C is 171 % of control and 197 % of control and 220 % of control.

And the T/C (dose: 1.0 mg/kg/injection, schedule: Q04DX003 (ip), vehicle: saline)?
The T/C was 229 % of control and 232 % of control and 280 % of control.

And the T/C (dose: 2.0 mg/kg/injection, schedule: Q04DX003 (ip), vehicle: saline)?
The T/C was 189 % of control and 222 % of control and 262 % of control.

And the T/C (dose: 4.0 mg/kg/injection, schedule: Q04DX003 (ip), vehicle: saline)?
The T/C was 268 % of control.

Which results are given for `CC(C)N1C(=O)N(Cl)C2C1N(Cl)C(=O)N2Cl` (stereo unspecified)?
T/C (dose: 6.25 mg/kg/injection, schedule: Q04DX003 (ip), vehicle: saline with Tween-80): 103 % of control and 88 % of control; T/C (dose: 12.5 mg/kg/injection, schedule: Q04DX003 (ip), vehicle: saline with Tween-80): 102 % of control and 88 % of control; T/C (dose: 25.0 mg/kg/injection, schedule: Q04DX003 (ip), vehicle: saline with Tween-80): 109 % of control and 98 % of control; T/C [1]: 107 % of control and 121 % of control; T/C [2]: 102 % of control and 120 % of control

How did the T/C (dose: 25.0 mg/kg/injection, schedule: Q04DX003 (ip), vehicle: water) turn out when `NC(Cc1ccccc1)C(=O)OCN1C(=O)C2C3C=CC(C2C1=O)C1C2C(=O)N(COC(=O)C(N)Cc4ccccc4)C(=O)C2C31` (stereo unspecified) was run?
The T/C was 105 % of control.

And the T/C (dose: 50.0 mg/kg/injection, schedule: Q04DX003 (ip), vehicle: water)?
The T/C was 109 % of control.

What about the T/C (dose: 100.0 mg/kg/injection, schedule: Q04DX003 (ip), vehicle: water) of the same molecule?
The T/C was 107 % of control.

And the T/C (dose: 200.0 mg/kg/injection, schedule: Q04DX003 (ip), vehicle: water)?
The T/C was 116 % of control.

For `Cc1nc(C(Cl)(Cl)Cl)[nH]c(=O)c1SCCO`, which T/C (dose: 75.0 mg/kg/injection, schedule: Q04DX003 (ip), vehicle: distilled water + Tween-80 + alcohol) is on record?
Its T/C is 102 % of control.

And the T/C (dose: 150.0 mg/kg/injection, schedule: Q04DX003 (ip), vehicle: distilled water + Tween-80 + alcohol)?
Its T/C is 116 % of control.

What about the T/C (dose: 300.0 mg/kg/injection, schedule: Q04DX003 (ip), vehicle: distilled water + Tween-80 + alcohol) of the same molecule?
Its T/C is 101 % of control.

What about the T/C (dose: 600.0 mg/kg/injection, schedule: Q04DX003 (ip), vehicle: distilled water + Tween-80 + alcohol) of the same molecule?
Its T/C is 117 % of control.

How did the T/C [1] turn out when `Cc1nc2c(N)cc(Cl)cc2[nH]1` was run?
Its T/C is 114 % of control.

And the T/C [2]?
Its T/C is 112 % of control.

And the T/C (dose: 200.0 mg/kg/injection, schedule: Q04DX003 (ip), vehicle: saline with Tween-80)?
Its T/C is 99 % of control.

`Cc1c(N)nc([C@H](CC(N)=O)NC[C@H](N)C(N)=O)nc1C(=O)N[C@H](C(=O)N[C@H](C)[C@@H](O)[C@H](C)C(=O)N[C@H](C(=O)NCCc1nc(-c2nc(C(=O)NCCC[S+](C)C)cs2)cs1)[C@@H](C)O)C(OC1OC(CO)C(O)C(O)C1OC1OC(CO)C(O)C(OC(N)=O)C1O)c1cnc[nH]1` (stereo partly specified) was tested. Which T/C (dose: 2.0 mg/kg/injection, schedule: Q01DX015 (ip), vehicle: saline) did it give?
The T/C was 165 % of control.

And the T/C (dose: 4.0 mg/kg/injection, schedule: Q01DX005 (ip), vehicle: saline)?
Its T/C is 155 % of control.

And the T/C (dose: 4.0 mg/kg/injection, schedule: Q01DX015 (ip), vehicle: saline)?
The T/C was 159 % of control.

And the T/C (dose: 8.0 mg/kg/injection, schedule: Q01DX005 (ip), vehicle: saline)?
Its T/C is 175 % of control.

And the T/C (dose: 8.0 mg/kg/injection, schedule: Q01DX015 (ip), vehicle: saline)?
The T/C was 176 % of control.

And the T/C (dose: 8.0 mg/kg/injection, schedule: Q04DX003 (ip), vehicle: saline)?
Its T/C is 160 % of control.

What about the T/C (dose: 16.0 mg/kg/injection, schedule: Q01DX015 (ip), vehicle: saline) of the same molecule?
Its T/C is 87 % of control.

And the T/C (dose: 24.0 mg/kg/injection, schedule: Q04DX003 (ip), vehicle: saline)?
The T/C was 110 % of control.

What about the T/C (dose: 32.0 mg/kg/injection, schedule: Q01DX001 (ip), vehicle: saline) of the same molecule?
The T/C was 150 % of control.

What about the T/C (dose: 32.0 mg/kg/injection, schedule: Q01DX005 (ip), vehicle: saline) of the same molecule?
Its T/C is 175 % of control.

What about the T/C (dose: 32.0 mg/kg/injection, schedule: Q04DX003 (ip), vehicle: saline) of the same molecule?
Its T/C is 176 % of control.

What about the T/C (dose: 36.0 mg/kg/injection, schedule: Q04DX003 (ip), vehicle: saline) of the same molecule?
Its T/C is 105 % of control.

What about the T/C (dose: 64.0 mg/kg/injection, schedule: Q01DX001 (ip), vehicle: saline) of the same molecule?
The T/C was 151 % of control.

What about the T/C (dose: 128.0 mg/kg/injection, schedule: Q01DX001 (ip), vehicle: saline) of the same molecule?
Its T/C is 150 % of control.

`O=C(O)CCCc1ccc(N(CCCl)CCCl)cc1` was tested. Which T/C (dose: 0.2 mg/kg/injection, schedule: Q04DX003 (ip), vehicle: Klucel (hydroxypropylcellulose) (HPC)) did it give?
The T/C was 90 % of control.

What about the T/C (dose: 0.3 mg/kg/injection, schedule: Q04DX003 (ip), vehicle: Klucel (hydroxypropylcellulose) (HPC)) of the same molecule?
The T/C was 95 % of control.

And the T/C (dose: 12.0 mg/kg/injection, schedule: Q01DX001 (ip), vehicle: Klucel (hydroxypropylcellulose) (HPC))?
Its T/C is 117 % of control.

What about the T/C (dose: 12.0 mg/kg/injection, schedule: Q01DX005 (ip), vehicle: Klucel (hydroxypropylcellulose) (HPC)) of the same molecule?
The T/C was 213 % of control.

And the T/C (dose: 12.0 mg/kg/injection, schedule: Q01DX015 (ip), vehicle: Klucel (hydroxypropylcellulose) (HPC))?
Its T/C is 173 % of control.

What about the T/C (dose: 12.0 mg/kg/injection, schedule: Q04DX003 (ip), vehicle: Klucel (hydroxypropylcellulose) (HPC)) of the same molecule?
The T/C was 116 % of control.

And the T/C (dose: 18.0 mg/kg/injection, schedule: Q01DX001 (ip), vehicle: Klucel (hydroxypropylcellulose) (HPC))?
Its T/C is 161 % of control.

And the T/C (dose: 18.0 mg/kg/injection, schedule: Q01DX005 (ip), vehicle: Klucel (hydroxypropylcellulose) (HPC))?
The T/C was 190 % of control.

And the T/C (dose: 18.0 mg/kg/injection, schedule: Q01DX015 (ip), vehicle: Klucel (hydroxypropylcellulose) (HPC))?
Its T/C is 346 % of control.

What about the T/C (dose: 27.0 mg/kg/injection, schedule: Q01DX005 (ip), vehicle: Klucel (hydroxypropylcellulose) (HPC)) of the same molecule?
The T/C was 346 % of control.

And the T/C (dose: 27.0 mg/kg/injection, schedule: Q01DX015 (ip), vehicle: Klucel (hydroxypropylcellulose) (HPC))?
Its T/C is 346 % of control.

And the T/C (dose: 27.0 mg/kg/injection, schedule: Q04DX003 (ip), vehicle: Klucel (hydroxypropylcellulose) (HPC))?
Its T/C is 210 % of control and 248 % of control and 97 % of control.

For `CC1=NN(c2cccc(S(=O)(=O)O)c2)C(=O)C1N=Nc1cc(Cl)cc(S(=O)(=O)O)c1O.CC1=NN(c2cccc(S(=O)(=O)O)c2)C(=O)C1N=Nc1cc(Cl)cc(S(=O)(=O)O)c1O.[Cr]` (stereo unspecified), which T/C (dose: 75.0 mg/kg/injection, schedule: Q04DX003 (ip), vehicle: suspension in saline) is on record?
Its T/C is 97 % of control.

And the T/C (dose: 150.0 mg/kg/injection, schedule: Q04DX003 (ip), vehicle: suspension in saline)?
The T/C was 94 % of control.

What about the T/C (dose: 300.0 mg/kg/injection, schedule: Q04DX003 (ip), vehicle: suspension in saline) of the same molecule?
Its T/C is 87 % of control.

Which results are given for `CC1(C)Nc2cc3c(cc2-n2cccc21)oc1ccccc13`?
T/C (dose: 37.5 mg/kg/injection, schedule: Q04DX003 (ip), vehicle: DMSO): 100 % of control; T/C (dose: 75.0 mg/kg/injection, schedule: Q04DX003 (ip), vehicle: DMSO): 100 % of control; T/C (dose: 150.0 mg/kg/injection, schedule: Q04DX003 (ip), vehicle: DMSO): 117 % of control; T/C (dose: 300.0 mg/kg/injection, schedule: Q04DX003 (ip), vehicle: DMSO): 91 % of control
